From patent US20240400998A1, “BLASTOCYST-LIKE CELL AGGREGATE AND METHODS” (IMBA - INSTITUT FÜR MOLEKULARE BIOTECHNOLOGIE GMBH, priority 2021, published 2024)
“Also recorded” adds a separate entry of the source.

Columns and labels:
Type in all cases: cell-based, human
[1] = test system: naive hPSC aggregates; assay: Induction of blastoids and trophospheres from naive hPSC aggregates in microwell arrays (yield counted by morphology); conditions: for effect on blastoid formation / yield of blastoids: naive hPSC aggregates in PALY medium complemented with the molecule every day, 0 to 96 hours; for morphology of hPSC aggregates upon stimulation: stimulation of hPSC aggregates with LPA or NAEPA; for formation of blastoids versus trophospheres: 3 μM SC144 in PALLY medium for 4 days (0 to 96 hours)
Description: Naive hPSCs or primed hPSCs cultures were treated with Accutase (Biozym, B423201) at 37° C. for 5 min, followed by gentle mechanical dissociation with a pipette. After centrifugation, the cell pellet was resuspended in PXGL medium, supplemented with Y-27632 (10 μM, MedChemExpress, HY-10583). To exclude MEF, the cell suspension was transferred onto gelatin coated plates and incubated at 37° C. for 70 min. After MEF exclusion, the cell number was determined using a Countess™ automated cell counter (Thermo Fisher Scientific) and Trypan Blue staining to assess cell viability. The cells were then resuspended in N2B27 media containing 10 μM Y-27632 (aggregation medium) and 3.0×10^4 cells were seeded onto a microwell array included into a well of a 96-well plate. The cells were allowed to form aggregates inside the microwell for a period ranging from 0 to 24 hours depending on the cell lines and based on their propensity for aggregation. Subsequently, the aggregation medium was replaced with PALLY medium-N2B27 supplemented with PD0325901 (1 μM), A 83-01 (1 μM, MedChemExpress, HY-10432), hLIF (10 ng/ml), 1-Oleoyl lysophosphatidic acid sodium salt (LPA) (500 nM, Tocris, 3854) and Y27632 (10 μM). The PALLY medium was refreshed every 24 hours. After 48 hours, the PALLY medium was replaced with N2B27 medium containing 500 nM LPA and 10 μM Y-27632. At 96 hours, a blastoid is defined based on morphological similarity to B6 staged human blastocyst, as a structure composed of a monolayered cyst with an overall diameter of 150-250 μm comprising one inner cell cluster. We also verified that, beyond the morphology, blastoids form analogs of the three blastocyst cell lineages in the sequential and timely manner of blastocyst development. […] The effect of LPA, NAEPA (Sigma-Aldrich, N0912) and Verteporfin (Selleck Chemicals Llc, S1786) on the yield of blastoid formation was assessed by culturing naive hPSC aggregates in PALY medium complemented with molecules added every day from 0 to 96 hours. The Verteporfin treatment was executed without exposure to the light. The effect of the aPKC inhibitor CRT0103390 (Gift from the laboratory of Kathy Niakan) was assessed by culturing naive hPSC aggregates in PALLY medium complemented with 2 μM CRT0103390 every day from 0 to 96 hours. The formation of trophospheres was induced by culturing naive hPSC aggregates in PALLY medium complemented with 2 μM XMU-MP-1 (Med Chem Express, HY-100526) or 3 μM SC-144 (Axon, 2324) every day from 0 to 96 hours. The BSA concentration was titrated within the range of 0-0.3% for individual cell lines used for the formation of the blastoids and trophospheres.
The phase contrast images were acquired using Thermo Fisher scientific EVOS cell imaging system and inverted wide field microscope Axio VertA1. The number of blastoids or cavitated structures were counted manually for each well. After 96 hours, a blastoid is defined based on the morphological parameters as described in previous sections. The fluorescent images and timelapse images were acquired using Olympus IX83 microscope with Yokogawa W1 spinning disk (Software: CellSense 2.3; camera: Hamamatsu Orca Flash 4.0) or Nikon Eclipse Ti E inverted microscope, equipped with a Yokogawa W1 spinning disc (Software: Visiview 4.5.0.7; camera: Andor Ixon Ultra 888 EMCCD). The confocal images were analyzed and display images were exported using FIJI 1.53k or Bitplane Imaris 9.7.0 softwares. For cell counting, Bitplane Imaris software was used. Cell count parameters were set for size and fluorescence strength of voxels and then overall cell count data was obtained for each image using Imaris's spot function. Note that large cavities in blastoids increase the depth of the imaging field causing poor signal from deeply located cells. Therefore, our counting data in FIG. 8H could be underrepresented values, particularly in the case of trophectoderm cells. The quantification of the percentage of blastoids forming the NR2F2 axis was done manually. […]

[2] = test system: Open Face Endometrial Layer (OFEL); assay: In vitro implantation assay: attachment of blastoids or trophospheres onto OFELs; conditions: for potential of endometrial cells to interact with human blastoids: EPC stimulation combined with the Wnt inhibitor
Description: (§1) Endometrial organoids were passaged as described in the previous section. The dissociated cells were resuspended in Matrigel supplemented with Y-27632 (10 μM), cell suspension was deposited in 48-well plates and were cultured in endometrial expansion medium for 2 days. The organoids were stimulated first with E2 (10 nM, Sigma-Aldrich, E2758) for 2 days, followed by the mixture of E2 (10 nM), P4 (1 μM, Sigma-Aldrich, P8783), and CAMP (250 μM, Biolog, B 007) with or without XAV939 (10 µM) (EPC or EPCX respectively) for 4 days. For OFELs culture, organoids were recovered from the matrigel droplets with ice-cold DMEM/F12 and mechanical pipetting. The organoids were dissociated using TrypLE and mechanically triturated to generate single cells and seeded at the density of 3 to 3.5×10^4 cells per well into a 96-well glass bottom plate (Cellvis, P96-1.5H-N) and cultured for 2-3 days with stimulation. For contraceptive treatment, levonorgestrel (LNG) (10 μM, Sigma-Aldrich, PHR1850) was added every day to the medium two days after hormonal stimulation and continued until the end of experiment.
Confluent OFELs were prepared for the implantation assay at least 2 hours prior to the deposition of blastoids, trophospheres, naive hPSCs or hTSCs aggregates by washing the OFEL two times with DMEM/F12 and adding IVC medium (Xiang, L. et al. Nature 577, 537-542 (2020)). Structures were then transferred onto the OFELs using a mouth pipette under an inverted microscope. After 24-48 hours, the medium was removed, the well was washed with PBS, fixed using 4% formaldehyde for 30 minutes at room temperature and subsequently processed for immunofluorescence staining. The percentage of attached structures was reported as the percentage of total transferred structures.

[3] = test system: endometrial cells (open-faced endometrial layer, OFEL); assay: qRT-PCR of window-of-implantation markers in endometrial cells (OFELs); conditions: for expression of the gene PAEP (marker of the WOI): endometrial cells, Wnt inhibition
Description: as §1
RNA was extracted using the RNeasy mini kit (Qiagen, 74106) and cDNA synthesis was performed using the Superscript III (Invitrogen, 18080093) enzyme. qPCR reactions were performed using GoTaq® qPCR Master Mix (Promega, A6001) on CFX384 Touch Real-Time PCR Detection System (Bio-rad). Quantification was performed using Microsoft Office Excel by applying the comparative Cycle threshold (Ct) method. Relative expression levels were normalized to GAPDH.

## NC(=O)c1ccc(-c2nc(-c3ccc4c(c3)OCO4)c(-c3ccccn3)[nH]2)cc1 [SB431542]
[1]; 1 μM SB431542 for 4 days in combination with PLLY
  blastoid formation with alternative TGF-b inhibitor: also work

## CN1C(=O)c2sccc2N(C)c2nc(Nc3ccc(S(N)(=O)=O)cc3)ncc21 [XMU-MP-1]
[2]; trophospheres formed using 2 μM XMU-MP-1
  attachment of trophospheres to stimulated endometrial cells (OFELs): fail to attach and invade stimulated endometrial cells; also recorded: largely fail to attach and to invade the endometrial layer; also recorded: failed to attach to OFELs
[1]; 2 μM XMU-MP-1 in PALLY medium for 4 days (0 to 96 hours)
  formation of trophospheres: results in the formation of trophospheres; also recorded: induces the formation of trophospheres with limited or no epiblast-like cells and hypoblast-like cells; also recorded: yielded trophospheres

## Cc1ccc(/C=N/NC(=O)c2ccccc2Oc2ccccc2)o1 [PNU-74654]
[2]
  potential of endometrial cells to interact with human blastoids: increases the potential of endometrial cells to interact with human blastoids

## LIF: leukemia inhibitory factor, STAT3 agonist
[1]; dose dependent effect of LIF
  blastoid formation efficiency versus LIF concentration: blastoid formation efficiency increased with LIF concentration

## N-[2-(phosphonooxy)ethyl]-9Z-octadecenamide [NAEPA]
[1]
  effect on blastoid formation / yield of blastoids: increases; also recorded: enhanced blastoid formation
  morphology of hPSC aggregates upon stimulation: leads to the transition from a solid aggregate of cells to a cystic structure including a single fluid-filled cavity

## Oc1nc(-c2ccc(C(F)(F)F)cc2)nc2c1CSCC2 [XAV939]
[2]
  potential of endometrial cells to interact with human blastoids: increases the potential of endometrial cells to interact with human blastoids
[3]; endometrial cells cultured with XAV939
  expression of PAEP, SPP1, LIF and DPP4 (RTqPCR): increases the expression of PAEP, SPP1, LIF and DPP4
[3]
  expression of the gene PAEP (marker of the WOI): increase the expression of the gene PAEP

## Cn1ncnc2c(=O)n(C)c(=O)nc1-2 [PKF118-310]
[3]
  expression of the gene PAEP (marker of the WOI): increase the expression of the gene PAEP

## O=C(NNc1nc2cc(F)ccc2n2cccc12)c1cnccn1 [SC144]
[2]; trophospheres formed using 3 μM SC144
  attachment of trophospheres to stimulated endometrial cells (OFELs): fail to attach and invade stimulated endometrial cells; also recorded: largely fail to attach and to invade the endometrial layer; also recorded: failed to attach to OFELs
[1]
  formation of blastoids versus trophospheres: a decrease in the formation of blastoids and an increase in the formation of trophospheres; also recorded: induces the formation of trophospheres with limited or no epiblast-like cells and hypoblast-like cells; also recorded: yielded trophospheres
[1]; listed as SC-144
  formation of blastoids versus trophospheres: induced the formation of mono-layer cavitated aggregate that does not form an inner cluster of Epi-/Hypo-like cells
[1]; SC-144 treatment
  maturation of lineage specification of outer trophectoderm cells: compromised

## Cc1ccc2nc(NC(=O)CSc3nc4c(c(=O)n3-c3ccccc3)SCC4)sc2c1 [IWP-2]
[2]
  potential of endometrial cells to interact with human blastoids: increases the potential of endometrial cells to interact with human blastoids

## Verteporfin
[1]; aggregate of hPSCs treated with Verteporfin, 1 μM
  formation of a cavity: totally prevents the formation of a cavity
[1]
  effect on blastoid formation / yield of blastoids: decreases; also recorded: prevented blastoid formation

## 1-Oleoyl lysophosphatidic acid sodium salt [LPA]
[1]; sodium salt
  effect on blastoid formation / yield of blastoids: increases; also recorded: significantly improved efficiency; also recorded: enhanced blastoid formation
[1]
  morphology of hPSC aggregates upon stimulation: leads to the transition from a solid aggregate of cells to a cystic structure including a single fluid-filled cavity
